Experimental data reported in patent US20110208153A1, “FORMULATIONS AND METHODS FOR NUTRIENT DELIVERY” (priority 2010, published 2011).

Test system: pre-retinal neovascularization
Test: pre-retinal neovascularization in the OIR mouse model following gavage treatments
Format: in vivo
Settings: for pre-retinal neovascularization relative to vehicle control: P<0.05
Text: FIG. 1 provides a graphical summary of the analysis of pre-retinal neovascularization levels in the mouse model following gavage treatments. The numbers in brackets in the legend refer to gavage doses in g/kg bodyweight/day. An * indicates P-values<0.05.

## CC/C=C\C/C=C\C/C=C\C/C=C\C/C=C\C/C=C\CCC(=O)O [DHA, docosahexaenoic acid]
2.5 g/kg body weight/day
  pre-retinal neovascularization relative to vehicle control: 49±4%

## arginyl-glutamine dipeptide [Arg-Gln dipeptide]
  effect on pre-retinal neovascularization (in words): dose-dependent reduction
5 g/kg of body weight/day
  pre-retinal neovascularization relative to vehicle control: 39±6%
